Some results are limits rather than exact numbers.

Among the data in a melting point compilation (Tetko et al.; mined from patent text by program, amines drawn as free bases though some values may be those of a salt) are melting point values, retold here.

In general, melting point refers to the temperature of the solid-liquid transition. Regarding `CCCc1nn(-c2ccc(C(F)(F)F)cn2)cc1CCCCOc1cc(CC(=O)O)ccc1OC`, the melting point is 147 to 148 °C.

On to `Cc1ccc(C(=O)Nc2ccc(-n3nc(C(F)(F)F)cc3C(F)(F)F)cc2)c(Cl)n1`, for which the melting point lay within 155 to 156 °C.

As for `CCCCOC(=O)N[C@H]1C(=O)N[C@H]1CO` (relative stereo), the melting point fell in the range of 128 to 131 °C.

In the case of `CC(C)(C)OC(=O)NCc1ccc2c(Br)c(O)ccc2c1`, the melting point fell in the range of 150 to 152 °C.

`COC(=O)c1ccc(Cl)cc1-n1c(CCl)nc2ccccc2c1=O` displayed a melting point of 155 to 157 °C.

For the compound `O=C(O)CCCCCCCNS(=O)(=O)c1ccc([N+](=O)[O-])cc1`, the melting point lay within 126 to 127 °C.

Consider `Cc1cc(O)n2nc(S(=O)(=O)Nc3ccccc3C(F)(F)F)nc2n1`, for which the melting point lay in the range of 245 to 247 °C.

For the compound `Cc1nn(-c2c(Cl)cc(C(F)(F)F)cc2Cl)nc1C(=O)Nc1ccccc1`, the melting point was in the range of 185 to 186 °C.

In the case of `Clc1nnnc(-c2cccc3ccccc23)c1Cl`, the melting point fell in the range of 165 to 170 °C.

Turning to `COc1ccc(F)cc1C(C)(C)CC(O)(Cc1ccc(C(C)=NO)cc1Cl)C(F)(F)F` (centres undefined), the melting point is 136 to 138 °C.

`O=C(NCCc1cccc(-c2nc(=O)c3ccccc3s2)n1)Nc1ccccc1` returned a melting point of 235 to 236 °C.

`CCOC(=O)c1cnc2c(NC(=O)c3c(Cl)cccc3Cl)cccc2c1S` showed a melting point of 197 to 199 °C.

In turn, `Fc1ccc(-c2cc(-c3cccs3)[nH]n2)cc1` displayed a melting point of 181 to 184 °C.

`N#Cc1ccc2c(c1)NC(=O)C2c1ncnc2c1cnn2C1CCCC1` (centres undefined) gave a melting point of 335 to 338 °C.

`N#CC(Cc1c[nH]cn1)(c1ccccc1)c1ccc(Cl)cc1Cl` (centres undefined): the melting point lay within 215 to 218 °C.

`CCCCn1c(=O)c2c(cnn2S(=O)(=O)CC)n(CCCC)c1=O` yielded a melting point of 119 to 121 °C.

Turning to `CN1CCN(c2ccc3c(c2)NC(=O)C(C)(c2ccc([N+](=O)[O-])cc2)C3=O)CC1` (centres undefined), the melting point lay within 150 to 151 °C.

`COc1cc2c(cc1O)CCN(Cc1cc(OC)c(OC)cc1OC)C2` had a melting point of 152 to 153 °C.

Consider `CC(C)(C)c1cc(Br)c(O)c(Br)c1`, for which the melting point was in the range of 65 to 69 °C.

In the case of `CCOC(=O)c1ccc(C=C2C=CN(CC)c3ccccc32)c([N+](=O)[O-])c1`, the melting point turned out to be 100 °C.

`COCC1(C)Oc2ccccc2C(n2ccccc2=O)C1O` (centres undefined) registered a melting point of 244 to 246 °C.

Turning to `O=C(Nc1cccc(S(=O)(=O)NC2(CO)CCCC2)c1)c1cnn2c(C3CC3)cc(-c3ccc(Cl)cc3)nc12`, the melting point fell in the range of 255 to 257 °C.

For `CN1CCN(C2CC3C4CCC5CC(O)C(N6CCC7(CC6)OCCO7)CC5(C)C4CCC3(C)C2O)CC1` (centres undefined), the melting point lay in the range of 185 to 187 °C.

Consider `CC(C)(C)c1ccc(C(=O)Nc2cc(OCCCO/N=C/c3cn(Cc4ccccc4)c4ccccc34)ccc2C(=O)O)cc1`, for which the melting point fell in the range of 181 to 182 °C.

On to `O=C(O)c1cc2c(-c3ccccc3)n[nH]c2s1`, for which the melting point was greater than 260 °C.

With `COc1ccc2c(c1)C(=O)c1ccccc1C2`, the melting point was in the range of 94.5 to 97.5 °C.

Compound `CCc1ccccc1C=CC=C1SC(=S)N(CC(=O)O)C1=O` yielded a melting point of 161 to 183 °C.

Take `O=C1CCC(c2ccccc2F)(c2ccccc2F)[C@@H]2CN(Cc3ccccc3)C[C@H]12` (racemic): the melting point is 138 °C.

`c1csc(Cn2ccnc2C2=NCCN2)c1` came in with a melting point of 101 to 103 °C.

The compound `O=c1oc(-c2ccccc2)cc(O)c1C(SCc1ccccc1)c1ccccc1` (centres undefined) displayed a melting point of 189 to 191 °C.

On to `CCNC(=O)c1ccc(C=C(C)c2ccc3c(c2)C(C)(C)CCO3)cc1`, for which the melting point was in the range of 161 to 163 °C.

`Cc1cc(C)c2c(n1)-c1ccccc1C2=O` gave a melting point of 102 to 104 °C.

Consider `Cc1n[nH]c2c1C(=O)CC(C)(C)C2`, for which the melting point is 103 to 104 °C.

Consider `CC(=NO)c1c(C#N)nn(-c2c(Cl)cc(C(F)(F)F)cc2Cl)c1N`, for which the melting point lay within 105 to 110 °C.

The compound `CCCCCCNc1nc(-c2ccccc2)c(-c2ccc(=O)n(C(C)C)n2)s1` had a melting point of 90 to 92 °C.

On to `COc1cc(F)c(C(=O)CCl)c(OC)c1`, for which the melting point was in the range of 93 to 96 °C.

Regarding `CN(C)C=NC(=N[N+](=O)[O-])N(C)Cc1ccc(Cl)nc1`, the melting point was in the range of 85 to 89 °C.

For the compound `COc1cc(Br)c([N+](=O)[O-])cc1OC`, the melting point is 120 to 122 °C.

Consider `Cc1ccc(S(=O)(=O)OC[C@H](O)CO)cc1`, for which the melting point was 54 to 59 °C.

In the case of `CCS(=O)(=O)Nc1cc(-c2ncnc(Cl)c2Cl)c(F)cc1C#N`, the melting point is 149 to 150 °C.

`COc1ccccc1NC(=O)Nc1ccc(CC(=O)OC(C)(C)C)cc1OC` came in with a melting point of 132 to 134 °C.

With `CN(C)c1nn(C(=O)NC(C)(C)CF)c(=O)n1NCc1cccc(Cl)c1`, the melting point came to 158 °C.

`Brc1ccc(-c2ccc(Br)cc2I)c(I)c1` had a melting point of 89 °C.

Compound `CC(Oc1ccc2nc(NC(=O)NCCN3CCN(Cc4ccccc4)CC3)sc2c1)c1c(Cl)ccc(F)c1Cl` (centres undefined) returned a melting point of 125 to 139 °C.

The compound `CC(C)OC(=O)c1cc(-n2nc3ccc(Cl)cn3c2=O)c(F)cc1Cl` came in with a melting point of 120 to 123 °C.

For `CC(Nc1nc(Cl)nc2c1cnn2-c1ccccc1)C(O)c1ccccc1` (centres undefined), the melting point fell in the range of 164 to 165 °C.

With `N#CC1(c2ccc(NC(=O)c3ccc4c(c3)OCCO4)cc2)CCCC1`, the melting point was 164 to 167 °C.

`COc1ccc(C(=O)O)cc1CCCN(C)C` had a melting point of 135 to 138 °C.

Consider `N#Cc1nc(Cl)ccc1N`, for which the melting point was in the range of 162 to 165 °C.

Turning to `O=C1CN(c2ccccc2)C(=S)N1Cc1ccccc1`, the melting point is 103 °C.

On to `COC(=O)c1ccc(Cn2nnc3ccc(NC(=O)OC4CCCC4)cc32)c(OC)c1`, for which the melting point was 142 to 143 °C.

Regarding `COc1ccc(C2(C3CCCC3=O)CCC(C(=O)O)CC2)c2c1OCCO2` (centres undefined), the melting point was in the range of 200 to 201 °C.

`Cc1ccc(C(=O)C(F)(F)S(=O)(=O)c2ccccc2)cc1` had a melting point of 79 to 81 °C.

As to `CC(CCCc1ccccc1)c1cc2c(cc1O)C1C(=O)CCCC1C(C)(C)O2` (centres undefined), the melting point is 108 to 115 °C.

Turning to `COc1cc2c(Nc3ccc(Sc4nccn4C)c(Cl)c3)c(C#N)cnc2cc1-c1csc(CN2CCOCC2)c1`, the melting point lay within 238 to 240 °C.

`O=C(O)CCCON1CCNC1=Nc1c(Cl)cccc1Cl` showed a melting point of 115 to 116 °C.

`COc1cc(C(=O)c2ccc(C(F)(F)F)cc2)cc(N)c1OC` displayed a melting point of 95 to 96 °C.

Turning to `Cc1sc(-c2cccs2)cc1Br`, the melting point is 36 to 37 °C.

Turning to `CS(=O)(=O)Cc1cc(N)ccc1N1C(=O)c2ccc(Cl)cc2C1=O`, the melting point was in the range of 228 to 230 °C.

On to `CN(C)C(=O)Nc1cc(CNc2ccccc2C(=O)Nc2ccc3cn(C)nc3c2)ccn1`, for which the melting point came to 184 °C.

On to `CCOC(=O)C(=CNc1ccc2c(c1)CCC2)C(=O)OCC`, for which the melting point lay within 25 to 30 °C.

For the compound `O=C1NCCc2ccc(O)cc21`, the melting point was 201 to 203 °C.

Regarding `Cc1nnc(Cl)c2cc(O)ccc12`, the melting point is greater than 260 °C.

The compound `COCc1nccn1CC(=O)c1ccc(-c2ccc(N3C[C@H](Cn4ccnn4)OC3=O)cc2F)cn1` had a melting point of 78 to 80 °C.

`O=C(c1cc(Cl)cc(Cl)c1)N1CCc2cc(S(=O)(=O)N3CC(c4ccccc4)NC3=O)ccc21` (centres undefined): the melting point came to 236 °C.

As for `CSc1nnc(-c2ccc(Cl)cc2)o1`, the melting point lay within 121 to 123 °C.

Regarding `Cc1ccc(-c2ccc3c(c2)C=C(C(=O)Nc2ccc(CNC(CO)CO)cc2)CC3)cc1`, the melting point was in the range of 189 to 193 °C.

`CCN(C(=S)Nc1cc(Cl)ccc1C)c1c(C)nn(C)c1C` registered a melting point of 144 to 145 °C.

In the case of `C[C@@H]1N[C@@H](c2ccc(C#N)cc2)[C@H]2C(=O)N(Cc3ccccc3)C(=O)[C@H]21` (racemic), the melting point lay within 169 to 170 °C.

`Cc1noc(NS(=O)(=O)c2ccccc2-c2ccc(-c3ncco3)cc2CN(C)C(=O)c2ccccc2F)c1C` displayed a melting point of 127 to 137 °C.

As to `COc1cccc(CNC(=O)c2nc3scc(-c4ccccc4)c3c(=O)[nH]2)c1`, the melting point was in the range of 177 to 178 °C.

The compound `Cc1noc(-c2ccc(Cl)cc2)c1-c1ccc(S(N)(=O)=O)cc1` yielded a melting point of 194 to 197 °C.

Compound `CC(C)(C)OC(=O)N[C@@H](Cc1ccc(O)cc1)C(=O)N[C@H](Cc1ccccc1)C(=O)NCC(=O)O` showed a melting point of 105 to 110 °C.

For the compound `CS(=O)(=O)c1ccc(-c2c(-c3ccc(F)cc3)nc3sccn23)cc1`, the melting point lay in the range of 184 to 185 °C.

As for `Cc1c(Cc2ccc([N+](=O)[O-])cc2)c(=O)oc2cc(O)cc(O)c12`, the melting point lay within 280 to 285 °C.

Take `OCc1nnc2ccc(-c3cccc(C(F)(F)F)c3)nn12`: the melting point was in the range of 224 to 226 °C.

`N#Cc1ccc(Cl)c(N=Cc2ccccc2O)c1` yielded a melting point of 147 to 148 °C.

Consider `Nc1nc2c(sc(=O)n2Cc2ccc(Cl)cc2)c(=O)[nH]1`, for which the melting point was greater than 320 °C.

Consider `CCCCCCCCCCOc1ccc(O)c(C(=O)OC)c1`, for which the melting point fell in the range of 40 to 43 °C.

With `CC1(C)CCc2c(N3CCOCC3)nc3sc4c(NCc5cccnc5)ncnc4c3c2C1`, the melting point worked out at 249 °C.

In the case of `O=C(Nc1nc(C(O)C(=O)O)cs1)OCC(Cl)(Cl)Cl` (centres undefined), the melting point was in the range of 135 to 136 °C.

Regarding `O=C1CC2CCc3ccc(F)cc3C2=NN1c1ccc(OCC2CO2)cc1` (centres undefined), the melting point lay within 128 to 130 °C.

In turn, `COc1ccc2cc(-c3nn(C)c4cc(OC)ccc34)ccc2c1` gave a melting point of 166 to 168 °C.

On to `CS(=O)(=O)c1ccc2c3c(cccc13)C(=O)N2`, for which the melting point lay in the range of 242 to 243 °C.

For `Nc1ccc(Oc2cc(Cl)ncn2)cc1`, the melting point lay within 136 to 138 °C.

Compound `N#Cc1ccc(-c2ccc(-c3ccc(C#N)o3)cc2)cc1` came in with a melting point of 216 to 218 °C.

On to `C#CCOc1cc(-n2nnn(CC)c2=O)c(Cl)cc1F`, for which the melting point is 88 to 89 °C.

With `C=C(COc1ccc(C(=O)CCC(=O)O)cc1F)COc1ccc(C(C)=O)c(O)c1CCC`, the melting point is 132 to 134 °C.

Compound `O=C(O)c1ccc(-c2nn(Cc3ccccc3)c3ccccc23)cc1` gave a melting point of 205 to 207 °C.
